Measured values from patent publication US20230279244A1, “RESIN COMPOSITION, COATED AND DRIED PRODUCT, MELT-KNEADED PRODUCT, OPTICAL FILTER, IMAGE DISPLAY DEVICE, SOLID-STATE IMAGING ELEMENT, SQUARYLIUM COMPOUND, AND METHOD FOR PRODUCING THE SAME” (FUJIFILM Corporation, priority 2020, published 2023).

Legend:
[1] = Measurement of maximal absorption wavelength of squarylium compound (Test Example 1); format: physicochemical; conditions: in chloroform, concentration 1×10^−6 mol/L, optical path length 10 mm
Description: The obtained squarylium compound B-12 was dissolved in chloroform (concentration: 1×10^−6 mol/L), and the maximum absorption wavelength λmax of the squarylium compound B-12 was measured using a cell having an optical path length of 10 mm and using a spectrophotometer UV-1800PC (manufactured by Shimadzu Corporation).

[2] = Evaluation of solubility of squarylium compound in toluene/cyclohexanone mixed solvent (Test Example 2); format: physicochemical; conditions: for Solubility: mixed solvent toluene/cyclohexanone=90/10 (vol %); for Solubility, measured dissolved amount: dissolved in 100 parts by mass of toluene/cyclohexanone=90/10 (vol %)
Description: Solubility of the obtained squarylium compound B-12 in a mixed solvent of toluene/cyclohexanone (toluene/cyclohexanone=90/10 (vol %)) was confirmed. Specifically, a dissolved amount (% by mass) of squarylium compound B-12 dissolved in 100 parts by mass of the mixed solvent of toluene/cyclohexanone was measured.
The solubility was evaluated by applying the obtained dissolved amount to the following standard.
—Evaluation Standard of Solubility—
B: 0.01% by mass or more and less than 0.1% by mass
C: less than 0.01% by mass

Row | Structure (SMILES) | λmax (maximum absorption wavelength) [1] [nm] | Solubility [2] | Solubility, measured dissolved amount [2] | Solubility in an organic solvent (in words) ([2]; summary of Tables 1 to 5)
1 | CCCCC(CC)C(=O)NC1=CC(=[N+](/CCCC)c2ccc(C)cc2)/C=CC/1=C1\C(=O)C(c2ccc(N(CCCC)c3ccc(C)cc3)cc2NC(=O)C(CC)CCCC)=C1[O-] (stereo not shown) [A-1] | 688 | A (0.1% by mass or more) | – | –
2 | CCCCC(CC)CN(c1ccc(C)cc1)c1ccc(C2=C([O-])/C(=C3C=C/C(=[N+](\CC(CC)CCCC)c4ccc(C)cc4)C=C/3NC(=O)C(C)(C)CC)C2=O)c(NC(=O)C(C)(C)CC)c1 (stereo not shown) [A-2] | 690 | A (0.1% by mass or more) | – | –
3 | CCCCC(CC)CN(CC(CC)CCCC)c1ccc(C2=C([O-])/C(=C3/C=CC(=[N+](c4ccc(C)cc4)c4ccc(C)cc4)C=C3NC(=O)C(C)(C)CC)C2=O)c(NC(=O)C(C)(C)CC)c1 (stereo not shown) [A-4] | 699 | A (0.1% by mass or more) | – | –
4 | CCCCC(CC)CN(CC(CC)CCCC)c1ccc(C2=C([O-])/C(=C3C=C/C(=[N+](\CC(CC)CCCC)c4ccc(C)cc4)C=C/3NC(=O)C(C)(C)CC)C2=O)c(NC(=O)C(C)(C)CC)c1 (stereo not shown) [A-5] | 681 | A (0.1% by mass or more) | – | –
5 | CCCCc1ccc(N(CC(CC)CCCC)c2ccc(C3=C([O-])/C(=C4C=C/C(=[N+](\CC(CC)CCCC)c5ccc(CCCC)cc5)C=C/4NC(=O)C(C)(C)CC)C3=O)c(NC(=O)C(C)(C)CC)c2)cc1 (stereo not shown) [A-19] | 687 | A (0.1% by mass or more) | – | –
6 | CCCCc1ccc(N(CC(CC)CCCC)c2ccc(C3=C([O-])/C(=C4C=C/C(=[N+](\CC(CC)CCCC)c5ccc(CCCC)cc5)C=C/4NC(=O)c4c(C)cc(C)cc4C)C3=O)c(NC(=O)c3c(C)cc(C)cc3C)c2)cc1 (stereo not shown) [A-20] | 696 | A (0.1% by mass or more) | – | –
7 | CCCCc1ccc(N(CC(CC)CCCC)c2ccc(C3=C([O-])/C(=C4C=C/C(=[N+](\CC(CC)CCCC)c5ccc(CCCC)cc5)C=C/4NC(=O)C(F)(F)F)C3=O)c(NC(=O)C(F)(F)F)c2)cc1 (stereo not shown) [A-22] | 688 | A (0.1% by mass or more) | – | –
8 | CCCCC(CC)CN(c1ccc(C2=C([O-])/C(=C3C=C/C(=[N+](\CC(CC)CCCC)c4ccc(C)cc4C)C=C/3NC(=O)C(C)(C)CC)C2=O)c(NC(=O)C(C)(C)CC)c1)c1ccc(C)cc1C (stereo not shown) [A-26] | 688 | A (0.1% by mass or more) | – | –
9 | CCCCc1ccc(N(CC(CC)CCCC)c2ccc(C3=C([O-])/C(=C4C=C/C(=[N+](\CC(CC)CCCC)c5ccc(CCCC)cc5)C=C/4NC(=O)c4ccccc4)C3=O)c(NC(=O)c3ccccc3)c2)cc1 (stereo not shown) [A-28] | 695 | A (0.1% by mass or more) | – | –
10 | CCCCc1ccc(N(CC(CC)CCCC)c2ccc(C3=C([O-])/C(=C4C=C/C(=[N+](\CC(CC)CCCC)c5ccc(CCCC)cc5)C=C/4NC(=O)c4ccccc4C)C3=O)c(NC(=O)c3ccccc3C)c2)cc1 (stereo not shown) [A-29] | 695 | A (0.1% by mass or more) | – | –
11 | CCCCc1ccc(N(CC(CC)CCCC)c2ccc(C3=C([O-])/C(=C4C=C/C(=[N+](\CC(CC)CCCC)c5ccc(CCCC)cc5)C=C/4NC(=O)c4ccc5ccccc5c4)C3=O)c(NC(=O)c3ccc4ccccc4c3)c2)cc1 (stereo not shown) [A-30] | 697 | A (0.1% by mass or more) | – | –
12 | CCN(c1ccc(C)cc1)c1ccc(C2=C([O-])/C(=C3C=C/C(=[N+](\CC)c4ccc(C)cc4)C=C/3NC(=O)C(C)C)C2=O)c(NC(=O)C(C)C)c1 [C-4, reference compound] | 685 | B (0.01% by mass or more and less than 0.1% by mass) | – | exhibiting solubility in an organic solvent

Further lines, with some results ahead:

Row | λmax (maximum absorption wavelength) [1] [nm] | Solubility [2] | Solubility, measured dissolved amount [2] | Structure (SMILES) | Solubility in an organic solvent (in words) ([2]; summary of Tables 1 to 5)
13 | 680 | C (less than 0.01% by mass) | (<0.005% by mass | CC(=O)NC1=CC(=[N+](/C)c2ccccc2)/C=CC/1=C1/C(=O)C(c2ccc(N(C)c3ccccc3)cc2NC(C)=O)=C1[O-] [C-1, reference compound] | –
14 | 737 | C (less than 0.01% by mass) | (<0.005% by mass | CC(=O)NC1=CC(=[N+](c2ccccc2)c2ccccc2)C=C/C1=C1/C(=O)C(c2ccc(N(c3ccccc3)c3ccccc3)cc2NC(C)=O)=C1[O-] [C-2, reference compound] | –
15 | 658 | C (less than 0.01% by mass) | (<0.005% by mass | Cc1ccc(N(C)c2ccc(C3=C([O-])/C(=C4C=C/C(=[N+](\C)c5ccc(C)cc5)C=C\4O)C3=O)c(O)c2)cc1 [C-3, reference compound] | –
16 | 681 | C (less than 0.01% by mass) | (<0.01% by mass | CCCCN(c1ccccc1)c1ccc(C2=C([O-])/C(=C3C=C/C(=[N+](\CCCC)c4ccccc4)C=C\3NC(C)=O)C2=O)c(NC(C)=O)c1 [C-6, reference compound] | –
